US20110311455A1, “EN[…] GUIDED IMAGING AND […]” (THE REGENTS OF THE UNIVERSITY OF CALIFORNIA, priority 2008, published 2011)

Test system: normal human bronchial epithelial cells (LHS-9)
Assay: Cellular fluorescence imaging of cells incubated with OVG's or free ICG
Assay type: cell-based
Conditions: 2 hr post-incubation; ICG 10 μg/ml
Protocol: The cells were cultured for 24 hours in serum free culture medium supplied by the commercial vendor. […] An optical filter that allowed transmission of NIR light greater than 780 nm was used to capture the fluorescent signal onto a CCD camera.

Compound: CC1(C)C(/C=C/C=C/C=C/C=C2\N(CCCCS(=O)(=O)O)c3ccc4ccccc4c3C2(C)C)=[N+](CCCCS(=O)(=O)[O-])c2ccc3ccccc3c21 [ICG, indocyanine green]
- localization in cells (confocal fluorescent images): remains mostly localized to the “rim” of the cells
